Measured values published in US20240189287A1, “PERIPHERALLY RESTRICTED CB1 RECEPTOR BLOCKERS AND USES THEREOF” (BIONANOSIM (BNS) LTD, priority 2021, published 2024).
Entries after “also recorded” stand apart in the source; their conditions may differ.

Key:
P-gp (MDR1) = assay: MDR1-MDCK II cell permeation assay (bi-directional permeability, P-gp efflux); type: in vitro ADME; conditions: dog, MDCK-MDR1, pH 7.4; 2 μM, A to B, 2.5 hours
Procedure, shortened: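 Compounds at 2 μM (DMSO <1%) in HBSS with 10 mM Hepes, pH 7.4, were applied apically or basolaterally to MDR1-MDCKII monolayers. A-to-B and B-to-A transport was run in duplicate with or without 10 μM GF120918 for 2.5 h at 37° C, 5% CO2. Compounds were quantified by LC-MS/MS, and efflux ratios were determined.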

CB1 receptor [1] = biological target: CB1 receptor (Homo sapiens (Human), UniProt P21554); assay: CB1 receptor radioligand binding assay, membranes from human source
Sequence of CB1 receptor (Homo sapiens (Human), UniProt P21554) (P21554 whole entry): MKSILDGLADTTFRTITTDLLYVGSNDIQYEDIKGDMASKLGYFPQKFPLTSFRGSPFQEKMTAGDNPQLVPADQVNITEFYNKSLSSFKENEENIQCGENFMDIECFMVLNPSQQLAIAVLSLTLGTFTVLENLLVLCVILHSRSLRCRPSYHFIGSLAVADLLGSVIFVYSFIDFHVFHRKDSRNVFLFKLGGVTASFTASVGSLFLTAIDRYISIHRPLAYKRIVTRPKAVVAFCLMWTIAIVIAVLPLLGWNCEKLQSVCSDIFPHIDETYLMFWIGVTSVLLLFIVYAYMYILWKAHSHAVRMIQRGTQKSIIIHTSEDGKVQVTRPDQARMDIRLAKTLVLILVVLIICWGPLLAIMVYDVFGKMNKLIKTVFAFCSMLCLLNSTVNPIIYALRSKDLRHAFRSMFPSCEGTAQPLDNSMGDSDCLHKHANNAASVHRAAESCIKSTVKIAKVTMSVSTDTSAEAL
Procedure: (§1) Radioligand binding assays: Binding affinity was determined by a radioligand binding assay. The different BB8-conjugates binding to CB1 and CB2 receptors was assessed in competition displacement assays using [^3H]CP-55.940 as the radioligand and crude membranes from mouse brain for CB1 receptor and human kidney cells for CB2 receptor.
(§2) CB1 receptor binding assay: Mouse brain membranes were used as the source material for CB1 receptors. The displacement of specifically bound tritiated CP-55.940 from these membranes using a standard filtration assay was used to determine the Ki values for the test compounds. Briefly. 20 μg of protein was incubated for 1 h at 30° C. in the presence of 0.5 nM [^3H]CP-55,940 and various concentrations (10^−5M-10^−11M) of test compound/control, final volume of 1 mL. The incubation was terminated by rapid filtration and washing, and the amount of specifically bound [^3H]CP-55,940 was determined. Briefly, membranes with bound [^3H]CP-55,940 were separated and washed from free ligand by vacuum filtration, adsorbing the membrane onto a Whatman glass microfiber filter paper ([…], Cat #1821271). Finally, the Whatman filter paper with adsorbed membranes was cut and placed in scintillation liquid (Ultima Gold) for 1 h at 25° C. followed by a β counter reading of bound [^3H]CP-55,940 radioligand. All data were in triplicates with Ki values determined using GraphPad Prism 7.02 analysis software. […] In some cases, membranes from human source were used to determine CB1 receptor binding affinity.

[2] = Pharmacokinetics after oral and IV dosing; type: in vivo, C57BL/6J mice; conditions: for Cmax: male, C57BL/6J, po
Procedure: Pharmacokinetics: Male C57BL/6J mice (7-9 weeks, N=3 in each group) were used in this study. Mice were fasted at least 12 hr prior to administration of test article and have access to food ad libitum 4 hr post dosing. Appropriate amount of test article was accurately weighted and mixed with the appropriate volume of vehicle to get a clear oral solution. The formulations were prepared on the day of dosing, and mice were dosed via either orally gavage or intravenous injection, up to 4 hr after formulations were prepared. About 30 μL blood per time point was collected from the saphenous vein followed by plasma preparation. Dose formulation and sample analysis was performed by LC-MS/MS method. Plasma concentration versus time data was analyzed by non-compartmental method.

CB1 receptor [3] = biological target: CB1 receptor (Mus musculus (Mouse), UniProt P47746); assay: CB1 receptor radioligand binding assay, [3H]CP-55,940 displacement, mouse brain membranes
Sequence of CB1 receptor (Mus musculus (Mouse), UniProt P47746) (P47746 whole entry): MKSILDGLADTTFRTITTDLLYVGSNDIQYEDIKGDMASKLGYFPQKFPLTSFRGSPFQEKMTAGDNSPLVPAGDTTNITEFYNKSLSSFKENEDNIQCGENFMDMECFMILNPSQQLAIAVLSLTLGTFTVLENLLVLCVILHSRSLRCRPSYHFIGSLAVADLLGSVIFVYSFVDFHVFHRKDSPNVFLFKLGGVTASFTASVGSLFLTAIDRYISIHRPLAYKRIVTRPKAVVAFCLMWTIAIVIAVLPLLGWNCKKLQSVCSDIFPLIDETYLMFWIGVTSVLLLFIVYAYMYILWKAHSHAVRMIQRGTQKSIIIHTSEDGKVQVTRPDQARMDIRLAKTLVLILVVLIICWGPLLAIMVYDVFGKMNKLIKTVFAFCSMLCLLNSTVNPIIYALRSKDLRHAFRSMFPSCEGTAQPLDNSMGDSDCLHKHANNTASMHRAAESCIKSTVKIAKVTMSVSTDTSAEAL
Procedure: as §1, §2

mice [4] = assay: Elevated plus-maze, anxiety-related behavior; type: in vivo; conditions: single dose 20 mg/kg PO
Procedure: Elevated plus-maze: Anxiety-related behaviors were assessed using the EPM test as reported previously. Animals were placed on the 5×5 cm central platform of an apparatus from which four arms, 30 cm×5 cm extended. Two of the arms (the closed arms) are enclosed within 15 cm high walls, and the two other arms (the open arms) have 1 cm high rims. The whole maze is elevated 75 cm above the ground. During the 6 min test time, the number of entries to each arm type (closed or open arms, frequencies) and the time spent in each type of arm (closed or open arms, duration) during the test were measured.

mice [5] = assay: Catalepsy test (bar test), WIN55,212-induced; type: in vivo; conditions: single dose 20 mg/kg PO 30 min prior to WIN55,212 3 mg/kg IP
Procedure: Catalepsy test: Catalepsy was assayed using the bar test. Briefly, mice were removed from their home cage, and their forepaws were placed on a horizontal bar, 0.5 cm in diameter, positioned 4 cm above the bench surface. Vehicle-treated mice routinely let go of the bar within 2 sec. Cataleptic behavior was defined as the time the animals remained motionless holding on to the bar, with an arbitrary cutoff of 30 sec. The antagonists were given 30 min before the IP injection of 3 mg/kg WIN55,212. The test was performed 60 min after agonist administration.

[6] = mouse, plasma, oral administration of 10 and 20 mg/kg, C57BL/6J male mice

What does the source list for `O=S(=O)(NC1CCCOc2c1nn(-c1ccccc1Cl)c2-c1ccc(Cl)cc1)c1ccc(Cl)cc1` (stereo not shown) [BNS808, 4-chloro-N-[2-(2-chlorophenyl)-3-(4-chlorophenyl)-5,6,7,8-tetrahydrooxepino[3,2-c]pyrazol-8-yl]benzenesulfonamide]?
Papp at 2.5 h, 2 μM (P-gp (MDR1)): 0.26 ×10⁻⁶ cm/s; Ki (CB1 receptor [1]): 0.7 nM

What does the source list for `Cc1ccc(C)c(OCCCC(C)(C)C(=O)NC2CCCOc3c2nn(-c2ccccc2Cl)c3-c2ccc(Cl)cc2)c1` (stereo not shown) [BNS822, N-[2-(2-chlorophenyl)-3-(4-chlorophenyl)-5,6,7,8-tetrahydrooxepino[3,2-c]pyrazol-8-yl]-5-(2,5-dimethylphenoxy)-2,2-dimethyl-pentanamide]?
Oral bioavail (%) ([2]; absolute, oral 10 and 20 mg/kg vs IV 1 mg/kg, C57BL/6J male mice): 8.62-10.59%; Cmax ([2]; mouse, plasma, 10 mg/kg, oral 10 mg/kg, mice): 283 ng/mL; Cmax ([2]; mouse, plasma, 20 mg/kg, oral 20 mg/kg, mice): 811 ng/mL; Cmax ([2]; mouse, plasma, 20 mg/kg, oral administration of 10 and 20 mg/kg (range over both doses), C57BL/6J male mice): 283 to 811 ng/mL; Tmax [2, 6]: 2 h; half-life [2, 6]: 5.2 h; T1/2 ([2]; oral administration of 10 and 20 mg/kg, C57BL/6J male mice): 5.2 h; affinity / potency against the CB1 receptor (in words) (CB1 receptor [3]; CB1 receptor (mouse/human)): high potency; Ki (CB1 receptor [3]; mouse (m) CB1 receptor, read-out: CB1R Ki (nM) (m)): 1.4 nM; anxiogenic behavior in the Elevated Plus Maze (mice [4]): nor did it induce a robust anxiogenic response; also recorded: no anxiogenic effect; WIN55,212-induced catalepsy (mice [5]): did not block; also recorded: no effect
